According to PubChem BioAssay (NCI):
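Grown in 96-well plates, cells were treated for 48 hours with each compound at five concentrations. Insufficient inhibition: endpoint recorded as highest concentration tested. GI50 is the concentration that inhibits growth by half. TGI: total growth inhibition.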

Columns and labels:
Test in all cases: growth of human tumour cells (NCI), 48 h
[1] = test system: 786-0 renal
[2] = test system: A498 renal
[3] = test system: A549 NSCLC
[4] = test system: ACHN renal
[5] = test system: BT-549 breast
[6] = test system: CAKI-1 renal
[7] = test system: CCRF-CEM leukemia
[8] = test system: COLO 205 colon
[9] = test system: DU-145 prostate
[10] = test system: EKVX NSCLC
[11] = test system: HCC-2998 colon
[12] = test system: HCT-116 colon
[13] = test system: HCT-15 colon
[14] = test system: HL-60(TB) leukemia
[15] = test system: HOP-62 NSCLC
[16] = test system: HOP-92 NSCLC
[17] = test system: HS 578T breast
[18] = test system: HT29 colon
[19] = test system: IGROV1 ovarian
[20] = test system: K-562 leukemia
[21] = test system: KM12 colon
[22] = test system: LOX IMVI melanoma
[23] = test system: M14 melanoma
[24] = test system: MALME-3M melanoma
[25] = test system: MCF7 breast
[26] = test system: MDA-MB-231 breast
[27] = test system: MDA-MB-435
[28] = test system: MOLT-4 leukemia
[29] = test system: NCI-H226 lung
[30] = test system: NCI-H23 lung
[31] = test system: NCI-H460 lung
[32] = test system: NCI/ADR-RES ovarian
[33] = test system: OVCAR-3 ovarian
[34] = test system: OVCAR-4 ovarian
[35] = test system: OVCAR-5 ovarian
[36] = test system: OVCAR-8 ovarian
[37] = test system: PC-3 prostate
[38] = test system: RPMI-8226 leukemia
[39] = test system: RXF 393 renal
[40] = test system: SF-268 CNS
[41] = test system: SF-295 CNS
[42] = test system: SF-539 CNS
[43] = test system: SK-MEL-2 melanoma
[44] = test system: SK-MEL-28 melanoma
[45] = test system: SK-MEL-5 melanoma
[46] = test system: SK-OV-3 ovarian
[47] = test system: SN12C renal
[48] = test system: SNB-19 CNS
[49] = test system: SNB-75 CNS
[50] = test system: SR leukemia
[51] = test system: SW-620 colon
[52] = test system: T-47D breast
[53] = test system: TK-10 renal
[54] = test system: U251 CNS
[55] = test system: UACC-257 melanoma
[56] = test system: UACC-62 melanoma
[57] = test system: UO-31 renal

`CN(C)CC[C@H](CSc1ccccc1)Nc1ccc(S(=O)(=O)NC(=O)c2ccc(N3CCN(Cc4ccccc4-c4ccc(Cl)cc4)CC3)cc2)cc1[N+](=O)[O-]` gave a GI50 [1] of 3.6 µM, a TGI [1] of 15.1 µM and a GI50 [2] of 0.0971 µM. The TGI [2] was 0.818 µM, the GI50 [3] was 3.73 µM and the TGI [3] was over 100 µM. The GI50 [4] was 4.96 µM, the TGI [4] was over 50.6 µM and the GI50 [5] was 17.3 µM. The TGI [5] was over 100 µM, the GI50 [6] was 6.71 µM and the TGI [6] was over 100 µM. The GI50 [7] was 0.36 µM, the TGI [7] was over 100 µM and the GI50 [8] was 2.12 µM. The TGI [8] was 4.7 µM, the GI50 [9] was 23 µM and the TGI [9] was over 100 µM. For the same molecule, the GI50 [10] was 3.32 µM, the TGI [10] was over 100 µM and the GI50 [11] was 0.457 µM. The TGI [11] was 2.01 µM, the GI50 [12] was 2.93 µM and the TGI [12] was over 27.3 µM. For the same molecule, the GI50 [13] was 5.09 µM, the TGI [13] was over 100 µM and the GI50 [14] was 0.35 µM. It also gave a TGI [14] of 4.56 µM, a GI50 [15] of 9.66 µM and a TGI [15] of over 60.2 µM. For the same molecule, the GI50 [16] was 0.186 µM, the TGI [16] was 0.833 µM and the GI50 [17] was 6.87 µM. The TGI [17] was over 100 µM, the GI50 [18] was 2.17 µM and the TGI [18] was 5.02 µM. It also gave a GI50 [19] of 3.05 µM, a TGI [19] of over 51.6 µM and a GI50 [20] of 5.03 µM. For the same molecule, the TGI [20] was over 100 µM, the GI50 [21] was 3.6 µM and the TGI [21] was 23.6 µM. It also gave a GI50 [22] of 2.77 µM, a TGI [22] of over 100 µM and a GI50 [23] of 4.17 µM. It also gave a TGI [23] of 29.8 µM, a GI50 [24] of 3.11 µM and a TGI [24] of 36.3 µM. The GI50 [25] was 3 µM, the TGI [25] was over 41.3 µM and the GI50 [26] was 1.55 µM. It also gave a TGI [26] of 3.5 µM, a GI50 [27] of 2.47 µM and a TGI [27] of over 34.6 µM. The GI50 [28] was 0.392 µM, the TGI [28] was 2.64 µM and the GI50 [29] was 4.59 µM. For the same molecule, the TGI [29] was 17.4 µM, the GI50 [30] was 9.07 µM and the TGI [30] was over 100 µM. The GI50 [31] was 3.52 µM, the TGI [31] was 23.9 µM and the GI50 [32] was over 61.6 µM. For the same molecule, the TGI [32] was over 100 µM, the GI50 [33] was 3.92 µM and the TGI [33] was 23.6 µM. It also gave a GI50 [34] of 3.04 µM, a TGI [34] of over 29.6 µM and a GI50 [35] of 5.07 µM. The TGI [35] was 41.1 µM, the GI50 [36] was 6.12 µM and the TGI [36] was over 100 µM. For the same molecule, the GI50 [37] was 4.07 µM, the TGI [37] was over 100 µM and the GI50 [38] was 2.56 µM. The TGI [38] was over 100 µM, the GI50 [39] was 0.918 µM and the TGI [39] was 4.27 µM. For the same molecule, the GI50 [40] was 5.84 µM, the TGI [40] was over 100 µM and the GI50 [41] was 3.6 µM. For the same molecule, the TGI [41] was over 100 µM, the GI50 [42] was 36.5 µM and the TGI [42] was over 100 µM. It also gave a GI50 [43] of 1.88 µM, a TGI [43] of 4.94 µM and a GI50 [44] of 5.73 µM. It also gave a TGI [44] of over 100 µM, a GI50 [45] of 1.56 µM and a TGI [45] of 3.23 µM. For the same molecule, the GI50 [46] was 4.58 µM, the TGI [46] was 16.9 µM and the GI50 [47] was 3.56 µM. For the same molecule, the TGI [47] was over 56.7 µM, the GI50 [48] was 4.68 µM and the TGI [48] was over 100 µM. The GI50 [49] was 6.09 µM, the TGI [49] was over 100 µM and the GI50 [50] was 3.85 µM. For the same molecule, the TGI [50] was 40.2 µM, the GI50 [51] was 4.02 µM and the TGI [51] was over 61.1 µM. It also gave a GI50 [52] of 5.87 µM, a TGI [52] of over 60.4 µM and a GI50 [53] of 2.44 µM. The TGI [53] was 5.37 µM, the GI50 [54] was 3.9 µM and the TGI [54] was 17.4 µM. For the same molecule, the GI50 [55] was 1.79 µM, the TGI [55] was 6.16 µM and the GI50 [56] was 3.51 µM. For the same molecule, the TGI [56] was 20 µM, the GI50 [57] was 3.53 µM and the TGI [57] was 27.6 µM.
